Test results: PMC4234510, “Plasmodium falciparum UvrD activities are downregulated by DNA-interacting compounds and its dsRNA inhibits malaria parasite growth” (BMC Biochemistry, 2014)
Read-outs that look alike come from different tables or passages of the source. Values belong to the compound of their own block, whether it stands above or below them. Starred links: 1 amine or outer side, 2 acyl side, 3 side chain; linkers in the order of their positions; H or OH if unused. Positions of bridges follow the written chain, without caps; N, C: chain ends. Non-standard residues stand in square brackets, D forms with d. Residues, ends and D or L forms follow the SMILES beside them. Chains are numbered I, II in the order given. Actinocin(9to1) = Cc1c2oc3c(C)ccc(C(=O)[*:1])c3nc-2c(C(=O)[*:2])c(N)c1=O; NMeV = CN[C@H](C(=O)O)C(C)C; Sar = CNCC(=O)O

Assays:
[1] = tested on: PfUDN; assay: DNA helicase (unwinding) assay of PfUDN; format: biochemical, Plasmodium falciparum; conditions: for effect on DNA unwinding (helicase) activity of PfUDN: compound 20 μM, partial duplex substrate, Figure 3; for effect on helicase activity of PfUDN at lower concentration: upto 5 μM concentration tested (data not shown); for IC50: inhibitor 0.5-5.0 μM, unit printed in text b27, not in table or picture labels, read-out: IC50, inhibition of helicase (DNA unwinding) activity of PfUDN
Experimental: The specially designed partial duplex substrate consisted of a ^32P-labelled 47-mer DNA oligodeoxynucleotide annealed to M13mp19 phage ssDNA. This oligodeoxynucleotide of the nucleotide sequence 5'- (T)15[…](T)15-3' contains 15 base-pairs of non-complementary region (T)15 at both the 5’ and 3’ ends. Oligodeoxynucleotide was labeled at 5′-end with T4 polynucleotide kinase (PNK) (5U) (New England Biolabs) and 1.85 MBq of [γ-^32P] ATP (specific activity 222 TBq/mmol) at 37°C for one hour and then annealed using standard annealing buffer (20 mM Tris-HCl, pH 7.5, 10 mM MgCl2, 100 mM NaCl, 1 mM DTT) with 0.5 μg of single-stranded circular M13mp19 (+) phage DNA by heating at 95°C for 1 min and then transferring immediately to 65°C for 2 min and then slow cooling to room temperature. Using gel filtration through a Sepharose 4B column (Pharmacia, Sweden) the non-hybridized oligodeoxynucleotide was removed. The reaction volume of 10 μl containing the ^32P-labeled helicase substrate (1000 cpm/10 μl) in appropriate buffer (20 mMTris-HCl, pH 8.0, 8 mM DTT, 1.0 mM MgCl2, 20 mMKCl and 16 μg/ml BSA) and PfUDN was incubated at 37°C for 60 min. The substrate and products were separated by electrophoresis on a nondenaturing 12% PAGE and the gel was exposed to hyper film for autoradiography or scanned on phosphoimager. In order to study the effect of DNA-interacting compounds on helicase activity, different compounds were added to the helicase reaction mixture prior to the addition of the PfUDN helicase. All the experiments were performed in duplicate and quantitation of both the substrate and unwound DNA bands was done using AlphaImager-EP/Image-J software ( http://rsbweb.nih.gov/ij/). Quantification data was used to calculate the standard deviation using Microsoft Excel 2010 and mean value was used to prepare the graph.

[2] = tested on: PfUDN; assay: ssDNA-dependent ATPase assay of PfUDN; format: biochemical, Plasmodium falciparum; conditions: for effect on ssDNA dependent ATPase activity of PfUDN: compound 20 μM, PfUDN 100 nM, reaction mixture (DNA) preincubated 15 min with compound, Figure 1A; for IC50: inhibitor 0.2-5.0 μM (ciprofloxacin 0.5-30 μM), read-out: IC50, inhibition of ssDNA-dependent ATPase activity of PfUDN
Experimental: Standard protocol of ATPase assay was followed as described in the previous report. The hydrolysis of ATP catalyzed by PfUDN was assayed by measuring the formation of Pi from [γ-^32P] ATP. The reaction mixture of 10 μl contained [γ-^32P] ATP (specific activity 222 TBq.mmol^-1) and cold ATP (1 mM), ATPase buffer (20 mM Tris-HCl, pH 8.0, 8 mM DTT, 1.0 mM MgCl2, 20 mM KCl and 16 μg/ml BSA), purified PfUDN and 50 ng or 100 ng of M13 mp19 ssDNA. The reaction mixtures were incubated at 37°C for 60 min. This was followed by thin layer chromatography (TLC), and the quantitation was done using Alpha Imager-EP/Image-J software ( http://rsbweb.nih.gov/ij/). In order to study the effect of various compounds on ssDNA-dependent ATPase activity, different compounds were added into the reaction mixture prior to the addition of the PfUDN. In another set of experiment, PfUDN was pre-incubated (15 min) with these compounds in order to obtain the insight of inhibitory mechanism. All the experiments were performed at least two times and quantification data was used to calculate the standard deviation using Microsoft Excel 2010 and mean value was used to prepare the graph.

[3] = tested on: malaria parasite; conditions: cited from earlier work
[4] = tested on: PfH45; conditions: Table 2; no unit and no reference given; read-out: inhibitory potential for helicase activity, PfH45; cited from earlier work
[5] = tested on: PfH45; conditions: comparison column of Table 1; no unit and no reference given; read-out: inhibitory potential for ATPase activity, PfH45; cited from earlier work
[6] = tested on: PfDH60; conditions: Table 2; no unit and no reference given; read-out: inhibitory potential for helicase activity, PfDH60; cited from earlier work
[7] = tested on: PfD66/PfDDX19; conditions: Table 2; no unit and no reference given; read-out: inhibitory potential for helicase activity, PfD66/PfDDX19; cited from earlier work
[8] = tested on: PfD66/PfDDX19; conditions: comparison column of Table 1; no unit and no reference given; read-out: inhibitory potential for ATPase activity, PfD66/PfDDX19; cited from earlier work
[9] = tested on: PfDH60; conditions: comparison column of Table 1; no unit and no reference given; read-out: inhibitory potential for ATPase activity, PfDH60; cited from earlier work
[10] = unit printed in text b20, not in table or picture labels

Structure (SMILES): O=C(O)c1cn(C2CC2)c2cc(N3CCNCC3)c(F)cc2c1=O [Ciprofloxacin, ciprofloxacin]
- effect on DNA unwinding (helicase) activity of PfUDN [1]: inhibit the DNA unwinding activity of PfUDN effectively
- effect on helicase activity of PfUDN at lower concentration [1]: failed to show appreciable inhibition
- effect on ssDNA dependent ATPase activity of PfUDN [2]: weakly inhibit
- IC50 ([2]; unit printed in text b20, not in table or picture labels, listed as ciprofloxacin): ~10 µM
- IC50 [2, 10]: 9.9 µM
- inhibition of malaria parasite growth [3]: found effective

- effect on ssDNA dependent ATPase activity of PfUDN [2]: inhibit
Structure (SMILES): N=C(N)c1ccc(-c2cc3ccc(C(=N)N)cc3[nH]2)cc1 [DAPI]

Structure (SMILES): COc1cccc2c1C(=O)c1c(O)c3c(c(O)c1C2=O)C[C@@](O)(C(C)=O)C[C@@H]3O[C@H]1C[C@H](N)[C@H](O)[C@H](C)O1 [Daunorubicin, daunorubicin]
- effect on DNA unwinding (helicase) activity of PfUDN [1]: inhibit the DNA unwinding activity of PfUDN effectively
- IC50 ([1]; listed as daunorubicin): ~3 µM
- IC50 [1]: 3 µM
- IC50 [4]: 1500 nM
- effect on ssDNA dependent ATPase activity of PfUDN [2]: top four inhibitors
- IC50 [2]: ~3 µM
- IC50 [5]: 5000 nM
- IC50 [6]: 300 nM

Structure (SMILES): CC[n+]1c(-c2ccccc2)c2cc(N)ccc2c2ccc(N)cc21 [Ethidium bromide, ethidium bromide]
- IC50 [7]: 1000 nM
- effect on DNA unwinding (helicase) activity of PfUDN [1]: inhibit the DNA unwinding activity of PfUDN effectively
- IC50 [1]: 4.8 µM
- IC50 [8]: 1500 nM
- IC50 [9]: 2500 nM
- IC50 [4]: 1000 nM
- effect on ssDNA dependent ATPase activity of PfUDN [2]: top four inhibitors
- IC50 [5]: 1500 nM
- IC50 [6]: 1500 nM

Structure (SMILES): Cn1cc(NC(=O)c2cc(NC(=O)CN=C(N)N)cn2C)cc1C(=O)NCCC(=N)N [Netropsin, netropsin]
- IC50 [7]: 500 nM
- effect on DNA unwinding (helicase) activity of PfUDN [1]: inhibit the DNA unwinding activity of PfUDN effectively
- IC50 [1]: 4.7 µM
- IC50 [8]: 1000 nM
- IC50 [4]: 500 nM
- effect on ssDNA dependent ATPase activity of PfUDN [2]: top four inhibitors
- IC50 [2, 10]: 3.1 µM
- IC50 [5]: 1500 nM
- IC50 [6]: 1200 nM

Structure (SMILES): COC(=O)[C@@H]1c2cc3c(c(O)c2[C@@H](O[C@@H]2O[C@@H](C)[C@H](OC)[C@@](C)(OC)[C@H]2OC)C[C@]1(C)O)C(=O)c1c(O)cc2c(c1C3=O)O[C@@H]1O[C@@]2(C)[C@H](O)[C@@H](N(C)C)[C@@H]1O [Nogalamycin, nogalamycin]
- IC50 [7]: 5000 nM
- effect on DNA unwinding (helicase) activity of PfUDN [1]: inhibit the DNA unwinding activity of PfUDN effectively
- IC50 [1]: 3.5 µM
- IC50 [9]: 500 nM
- IC50 [4]: 500 nM
- effect on ssDNA dependent ATPase activity of PfUDN [2]: top four inhibitors
- IC50 [2, 10]: 3.3 µM
- IC50 [5]: 800 nM
- IC50 [6]: 2000 nM

Structure (SMILES): Cc1c2oc3c(C)ccc(C(=O)N[C@@H]4C(=O)N[C@H](C(C)C)C(=O)N5CCC[C@H]5C(=O)N(C)CC(=O)N(C)[C@@H](C(C)C)C(=O)O[C@@H]4C)c3nc-2c(C(=O)N[C@@H]2C(=O)N[C@H](C(C)C)C(=O)N3CCC[C@H]3C(=O)N(C)CC(=O)N(C)[C@@H](C(C)C)C(=O)O[C@@H]2C)c(N)c1=O [actinomycin] (I: T[dV]P[Sar][NMeV] / II: T[dV]P[Sar][NMeV]; ester I:1-I:C, II:1-II:C; linker I:N-II:N via Actinocin(9to1))
- effect on DNA unwinding (helicase) activity of PfUDN [1]: not able to considerably inhibit
- effect on ssDNA dependent ATPase activity of PfUDN [2]: not able to considerably inhibit

Structure (SMILES): CC[C@@]1(O)C(=O)OCc2c1cc1n(c2=O)Cc2cc3ccccc3nc2-1 [camptothecin]
- effect on DNA unwinding (helicase) activity of PfUDN [1]: not able to considerably inhibit
- effect on ssDNA dependent ATPase activity of PfUDN [2]: not able to considerably inhibit

Structure (SMILES): N.N.[Cl][Pt][Cl] [cisplatin]
- effect on DNA unwinding (helicase) activity of PfUDN [1]: not able to considerably inhibit
- effect on ssDNA dependent ATPase activity of PfUDN [2]: not able to considerably inhibit

Structure (SMILES): O=P1(N(CCCl)CCCl)NCCCO1 (centres unmarked) [cyclophosphamide]
- effect on DNA unwinding (helicase) activity of PfUDN [1]: not able to considerably inhibit
- effect on ssDNA dependent ATPase activity of PfUDN [2]: not able to considerably inhibit

- effect on DNA unwinding (helicase) activity of PfUDN [1]: blocks the helicase activity appreciably
- effect on helicase activity of PfUDN at lower concentration [1]: failed to show appreciable inhibition
- effect on ssDNA dependent ATPase activity of PfUDN [2]: not able to considerably inhibit
Structure (SMILES): COc1cc([C@@H]2c3cc4c(cc3[C@@H](O[C@@H]3O[C@@H]5CO[C@@H](C)O[C@H]5[C@H](O)[C@H]3O)[C@H]3COC(=O)[C@H]23)OCO4)cc(OC)c1O [etoposide]

- effect on DNA unwinding (helicase) activity of PfUDN [1]: not able to considerably inhibit
- effect on ssDNA dependent ATPase activity of PfUDN [2]: not able to considerably inhibit
Structure (SMILES): O=c1c(-c2ccc(O)cc2)coc2cc(O)cc(O)c12 [genistein]

- effect on DNA unwinding (helicase) activity of PfUDN [1]: not able to considerably inhibit
- effect on ssDNA dependent ATPase activity of PfUDN [2]: weakly inhibit
Structure (SMILES): O=c1c(O)c(-c2ccc(O)cc2O)oc2cc(O)cc(O)c12 [morin]

- effect on DNA unwinding (helicase) activity of PfUDN [1]: not able to considerably inhibit
- effect on ssDNA dependent ATPase activity of PfUDN [2]: not able to considerably inhibit
Structure (SMILES): CO[C@@H]1[C@@H](OC(N)=O)[C@@H](O)[C@H](Oc2ccc3c(O)c(NC(=O)c4ccc(O)c(CC=C(C)C)c4)c(=O)oc3c2C)OC1(C)C [novobiocin]
